Test results taken from patent US4988708A, “Analgesic and anti-inflammatory 4-OH quinoline carboxylic acid derivatives” (Roussel Uclaf, priority 1984, dated 1991).
Read-outs that look alike come from different tables or passages of the source.

Columns and labels:
[1] = system: chronic arthritis of adjuvant; assay: Anti-inflammatory activity, chronic arthritis of adjuvant (preventative treatment); type: in vivo; details: male rats, oral, day 0 to day before kill on day 17; for ED50: Rattus norvegicus, 408 h, read-out: DA50 (the source's name)
Method: A. Anti-inflammatory activity chronic arthritis of adjuvant (preventative treatment)
(§1) The injection of adjuvant of "Freund" type into a hind paw causes in rats the rapid appearance of a primary inflammatory lesion in this paw and then after a latent period of 13 to 15 days, causes a secondary arthritis affecting in particular the other hind paw. The test was carried out on male rats aged from 42 to 50 days which received by intraplantar injection 0.1 ml of adjuvant of "Freund"type (suspension in vaseline oil of 6 mg per ml. of killed mycobacterium butyricum). The animals received the product studied orally from day 0 (day of the injection of the adjuvant) until the day before they were killed which occured on day 17. The arthritic control animals and normal control animals received only the vehicle. The assessment criteria of the activity of the substances studied were the increase in the volume of hind paws injected (primary and secondary inflammation) and not injected (secondary inflammation) in comparison with the average volume of paws corresponding to the normal controls. The DA50 was determined, that is to say, the dose which reduced the increase in volume of the hind paws of the treated animals in comparison to those of the control animals by 50% and the results are reported in the following Table.
C. Anti-inflammatory activity chronic arthritis of adjuvant (preventative treatment)
as §1, with “"Freund" type” for “"Freund"type”, “say” for “say,”, “50%.” for “50% and the results are reported in the following Table.”

[2] = system: stomachs; assay: Gastric ulceration effect; type: in vivo; details: female rats, oral, seven hours; graphically determined; maximum ulceration index is 300
Method: B. Gastric ulceration effect
The test was done on female rats weighing 120 to 150 g on a water diet for 24 hours at the time of the treatment divided into random groupd. The products were administered orally and seven hours later, the animals were killed and their stomachs opened along the great curvature, washed in an isotonic solution of sodium chloride and spread apart by wiping with a cotton pad soaked in the same solution. The degree of ulcerous lesions, in number and in size, was estimated on a scale from 0 to 3 by two observers unware of the treatments. The notation 1 indicated the presence of an obvious ulcer or of several punctiform ulcers.
To take in account also the percentage of rats having ulcers (degree of ulceration greater than 0.5, notation attributed to a hyperemia or to Petechiae often encountered in a control which had fasted) an ulceration index was calculated for each group according to the formula [formula]
The dose corresponding to an ulceration index of 100 or DU 100 was graphically determined (the maximum ulceration index is 300).

[3] = dose reducing increase in volume of hind paws by 50% (table, section A)

Structure (SMILES)	ED50 [1, 3]	further results
CCC(O)c1nc2c(C(F)(F)F)cccc2c(O)c1C(=O)Nc1nccs1 (single isomer, unassigned; isomer b) [Step A of Example 27 (B-isomer), 4-hydroxy-2-(1-hydroxypropyl)-N-(2-thiazolyl)-8-trifluoromethyl-3-quinoline carboxamide isomer B]	–	ED50 ([1]; dose reducing increase in volume of hind paws by 50% (text, section C)): 0.5 mg/kg
O=C(Nc1nccs1)c1c(C(O)CO)nc2c(C(F)(F)F)cccc2c1O (stereo not shown) [Example 2, 2-(1,2-dihydroxyethyl)-4-hydroxy-N-(2-thiazolyl)-8-trifluoromethyl-3-quinoline carboxamide]	0.7 mg/kg	–
CCC(=O)OC(COC)c1nc2c(C(F)(F)F)cccc2c(O)c1C(=O)Nc1nccs1 (stereo not shown) [Example 5, 2-[2-methoxy-1-(1-oxopropoxy)-ethyl]-4-hydroxy-N-(2-thiazolyl)-8-trifluoromethyl-3-quinoline carboxamide]	5 mg/kg	–
COCC(O)c1nc2c(C(F)(F)F)cccc2c(O)c1C(=O)Nc1nccs1 (stereo not shown) [Example 1, 4-hydroxy-2-(1-hydroxy-2-methoxy-ethyl)-N-(2-thiazolyl)-8-(trifluoromethyl)-3-quinoline carboxamide]	2 mg/kg	–
CCC(OC(=O)CN)c1nc2c(C(F)(F)F)cccc2c(O)c1C(=O)Nc1nccs1 (stereo not shown) [Example 16, 1-[4-hydroxy-3-[(2-thiazolylamino)-carbonyl]-8-(trifluoromethyl)-2quinolinyl]-propyl amino acetate dichlorohydride]	1 mg/kg	–
CC(O)C(O)c1nc2c(C(F)(F)F)cccc2c(O)c1C(=O)Nc1nccs1 (stereo not shown) [Example 3, 2-(1,2-dihydroxypropyl)-4-hydroxy-N-(2-thiazolyl)-8-trifluoromethyl-3-quinoline carboxamide]	3 mg/kg	–
CCC(OC(=O)c1cc2ccccc2[nH]1)c1nc2c(C(F)(F)F)cccc2c(O)c1C(=O)Nc1nccs1 (stereo not shown) [Example 28, 1-[4-hydroxy-3-{[(2-aminothiazolyl)-carbonyl]-8-trifluoromethyl2-quinolinyl]-propyl]1H-indole-2-carboxylate]	2 mg/kg	–
CCC(=O)OCC(OC(=O)CC)c1nc2c(C(F)(F)F)cccc2c(O)c1C(=O)Nc1nccs1 (stereo not shown) [Example 4, 2-[1,2-bis-(1-oxopropoxy)ethyl]-4-hydroxy-N-(2-thiazolyl)-8-trifluoromethyl-3-quinolinecarboxamide]	1 mg/kg	–
CCC(=O)OC(CC)c1nc2c(C(F)(F)F)cccc2c(O)c1C(=O)Nc1nccs1 (stereo not shown) [Example 12, 4-hydroxy-2-[1-(1-oxopropoxy)-propyl]-N-(2-thiazolyl)-8-(trifluoromethyl)-3-quinoline carboxamide]	0.8 mg/kg	DU 100 (dose corresponding to an ulceration index of 100) [2]: greater than 300 mg/kg
CCCC(=O)OC(CC)c1nc2c(C(F)(F)F)cccc2c(O)c1C(=O)Nc1nccs1 (stereo not shown) [Example 17, 1-[4-hydroxy-3-[(2-thiazolylamino)-carbonyl]-8-trifluoromethyl)-2quinolinyl]-propyl butanoate]	1.3 mg/kg	DU 100 (dose corresponding to an ulceration index of 100) [2]: greater than 300 mg/kg
CCCc1ncc(C(=O)OC(CC)c2nc3c(C(F)(F)F)cccc3c(O)c2C(=O)Nc2nccs2)s1 (stereo not shown) [Example 29]	–	DA50 ([1]; dose reducing increase in volume of hind paws by 50% (table, section A), 24480 min): 2 mg/kg
